Test results published in patent US9126994B2, “Crystalline form of a quinolinone-carboxamide compound” (Theravance Biopharma R&D IP, LLC, priority 2005, dated 2015).

Columns and labels:
Type in all cases: physicochemical
[1] = Dynamic moisture sorption (DMS) assessment; conditions: for sorption/desorption profile: about 2% to about 90% RH, room temperature
Experimental: Dynamic moisture sorption (DMS) assessment was performed at 25° C. using a VTI atmospheric microbalance, SGA-100 system (VTI Corp., Hialeah, Fla. 33016). A sample size of approximately 5-10 mg was used and the humidity was set at the ambient value at the start of the analysis. A typical DMS analysis consisted of three scans: ambient to 2% relative humidity (RH), 2% RH to 90% RH, 90% RH to 5% RH at a scan rate of 5% RH/step. The mass was measured every two minutes and the RH was changed to the next value (±5% RH) when the mass of the sample was stable to within 0.02% for 5 consecutive points. Representative DMS traces for samples of a crystalline hydrochloride salt and of a crystalline hydrate of a hydrochloride salt of compound I are shown in FIGS. 3 and 6, respectively.

[2] = Thermal analysis (DSC and TGA)
Experimental: Differential scanning calorimetry (DSC) was performed using a TA Instruments Model Q-100 module. Data were collected and analyzed using TA Instruments Thermal Advantage for Q Series™ software. A sample of about 1-10 mg was accurately weighed into an aluminum pan with lid. The sample was evaluated using a linear heating ramp of 10° C./min from 5° C. to, typically, 265° C. The DSC cell was purged with dry nitrogen during use. Representative DSC traces for samples of the crystalline hydrochloride salt and of the crystalline hydrate of a hydrochloride salt of compound I are shown in FIGS. 2 and 5, respectively.
Thermogravimetric analysis (TGA) was performed using a TA Instruments Model Q-500 module. Data were collected and analyzed using TA Instruments Thermal Advantage for Q Series™ software. A sample weighing about 1-5 mg was placed in an aluminum pan on a platinum cradle and scanned from ambient temperature to 300° C. with a linear heating rate of 10° C./min. The balance and furnace chambers were purged with nitrogen during use. Representative TGA traces for samples of a crystalline hydrochloride salt and of a crystalline hydrate of a hydrochloride salt of compound I are also shown in FIGS. 2 and 5, respectively.

[3] = Solid state stability assessment; conditions: for change in DSC, TGA, PXRD results after storage: hydrochloride
Excerpt: At specific intervals, the contents of a representative vial was removed and analyzed by DSC, TGA, PXRD, and by HPLC for chemical purity.

[4] = comparison of DSC and TGA traces
[5] = 24 weeks at 40° C. and 75% relative humidity

CC(C)n1c(=O)c(C(=O)N[C@H]2C[C@H]3CC[C@@H](C2)N3C[C@@H](O)CN(C)S(C)(=O)=O)cc2ccccc21.Cl.O [crystalline hydrate, crystalline hydrate of hydrochloride salt of 1-isopropyl-2-oxo-1,2-dihydroquinoline-3-carboxylic acid {(1S,3R,5R)-8-[(R)-2-hydroxy-3-(methanesulfonyl-methyl-amino)propyl]-8-aza-bicyclo[3.2.1]oct-3-yl}amide]
weight gain ([1]; 40% RH to 75% RH): less than 0.25% | sorption/desorption profile [1]: reversible | weight loss on drying ([1]; dried from ambient to 2% RH, regained from 2% RH to 40% RH): ~2.3% | decomposition (degradation) temperature [2, 4]: above 250 °C | decomposition at the melt transition ([2]; comparison of DSC and TGA traces, melt about 225° C. to about 250° C.): not significant

CC(C)n1c(=O)c(C(=O)N[C@H]2C[C@H]3CC[C@@H](C2)N3C[C@@H](O)CN(C)S(C)(=O)=O)cc2ccccc21.Cl [crystalline hydrochloride salt, 1-isopropyl-2-oxo-1,2-dihydroquinoline-3-carboxylic acid {(1S,3R,5R)-8-[(R)-2-hydroxy-3-(methanesulfonyl-methyl-amino)propyl]-8-azabicyclo[3.2.1]oct-3-yl}amide hydrochloride]
chemical degradation by HPLC after storage [3, 5]: no chemical degradation | change in DSC, TGA, PXRD results after storage [3, 5]: no detectable changes | change in DSC, TGA, PXRD results after storage ([3]; 24 weeks at 40° C. and 75% relative humidity, listed as hydrochloride salt): no detectable change | chemical purity of the stored sample (HPLC) ([3]; after 24 weeks of storage, open glass vials, 40° C. and 75% RH): 99.6% | weight change (hygroscopicity) ([1]; 2% to 90% relative humidity, room temperature (25° C.)): less than 0.2% | sorption/desorption profile [1]: reversible | deliquescence ([1]; exposed to up to 90% relative humidity at room temperature): neither the crystalline hydrochloride salt of the invention nor the hydrate thereof is deliquescent | temperature up to which thermally stable [2]: greater than 200 °C | temperature below which no significant thermal event ([2]; TGA / DSC trace, 10° C./min): about 225 °C | decomposition (degradation) temperature [2, 4]: above 230 °C
